The text below walks through data of US20250049970A1, “DLL3 TARGETING PEPTIDES AND CONSTRUCTS THEREOF” (MARIANA ONCOLOGY INC., priority 2023, published 2025).

For the experiment, the target named is T1, DLL3 (Homo sapiens, UniProt Q9NYJ7).
T1 sequence (Q9NYJ7 27-618): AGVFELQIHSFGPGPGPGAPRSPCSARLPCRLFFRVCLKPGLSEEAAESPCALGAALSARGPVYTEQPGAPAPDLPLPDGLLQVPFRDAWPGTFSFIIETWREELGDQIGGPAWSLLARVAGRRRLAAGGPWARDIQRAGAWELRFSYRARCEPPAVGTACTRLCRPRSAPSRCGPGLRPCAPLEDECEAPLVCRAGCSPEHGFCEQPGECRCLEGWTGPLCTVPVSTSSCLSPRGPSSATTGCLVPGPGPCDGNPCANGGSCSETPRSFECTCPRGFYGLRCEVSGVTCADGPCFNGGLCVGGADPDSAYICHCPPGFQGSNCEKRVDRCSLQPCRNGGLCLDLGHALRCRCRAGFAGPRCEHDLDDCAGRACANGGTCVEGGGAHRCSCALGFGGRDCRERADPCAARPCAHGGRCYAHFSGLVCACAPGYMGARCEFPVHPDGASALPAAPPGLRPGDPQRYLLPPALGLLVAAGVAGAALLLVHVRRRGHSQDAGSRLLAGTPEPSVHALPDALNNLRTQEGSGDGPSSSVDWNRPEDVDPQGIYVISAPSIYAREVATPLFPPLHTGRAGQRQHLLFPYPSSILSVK
Briefly: SPR KD, biotinylated human DLL3 on streptavidin chip (Table 8). Further details: biotin (biotinylated). The settings on record: biotinylated human DLL3 on streptavidin sensor chip, 25° C., 1:1 binding model. An excerpt: Biotinylated target ligand human DLL3 was immobilized on a streptavidin sensor chip. A reference surface was set up for nonspecific binding and refractive index changes. […] Sensorgram curves were fitted with 1:1 binding model, and affinity and kinetic parameters were obtained using Biacore Insight evaluation 4.0. software.

Where two headings read alike, the source gives them in different places. *1 amine or outer side, *2 acyl side, *3 side chain or, on linkers, in order; H or OH if unused. Where a SMILES comes first, the peptide text is derived from it. Bridges are numbered along the chain shown (N, C = ends). [ ]: non-standard residue; d: D form. The star is where a group is joined. X7 = O=C(O)CN1CCN(CC(=O)O)CCN(CC(=O)N[C@H]2CC[C@H](CC(=O)*)CC2)CCN(CC(=O)O)CC1; Ala(piperidin-4-yl) = O=C([C@H](CC1CCN([*:3])CC1)N[*:1])[*:2]; DOTA = O=C(O)CN1CCN(CC(=O)O)CCN(CC(=O)*)CCN(CC(=O)O)CC1; Ala(morpholin-4-yl) = N[C@@H](CN1CCOCC1)C(=O)O; Trp(7-aza) = N[C@@H](Cc1c[nH]c2ncccc12)C(=O)O; Bip = N[C@@H](Cc1ccc(-c2ccccc2)cc1)C(=O)O; 2Nal = N[C@@H](Cc1ccc2ccccc2c1)C(=O)O; NMetBuAla = CN[C@@H](CC(C)(C)C)C(=O)O; tBuAla = CC(C)(C)C[C@H](N)C(=O)O; Cba = N[C@@H](CC1CCC1)C(=O)O; Chg = N[C@H](C(=O)O)C1CCCCC1; Nle = CCCC[C@H](N)C(=O)O; CH2 = C([*:1])[*:2]

One may read the Kd as the equilibrium constant for the complex coming apart. For the molecule `CC[C@H](C)[C@H](NC(=O)[C@@H](NC(=O)[C@H](Cc1c[nH]c2ccccc12)NC(C)=O)[C@@H](C)O)C(=O)N[C@H]1CSSC[C@@H](C(=O)N[C@@H](Cc2c[nH]c3ccccc23)C(=O)N2CCC[C@H]2C(=O)N[C@H](CCCCNC(=O)CN2CCN(CC(=O)O)CCN(CC(=O)O)CCN(CC(=O)O)CC2)C(N)=O)NC(=O)[C@H](CC(=O)O)NC(=O)[C@H](Cc2cnc[nH]2)NC(=O)[C@H](Cc2ccc3ccccc3c2)NC(=O)[C@H](CC(N)=O)NC(=O)[C@H](CCCCNC(=O)CN2CCN(CC(=O)O)CCN(CC(=O)O)CCN(CC(=O)O)CC2)NC1=O` [compound 247] (Ac-WTICK(DOTA)N[2Nal]HDCWP[dK](DOTA)-NH2; disulfide 4-10), where the note is “read-out: SPR KD”, the Kd was below 1 nM.

With `CSCC[C@H](NC(C)=O)C(=O)N[C@@H](Cc1c[nH]c2ccccc12)C(=O)N[C@H](C(=O)N[C@@H](C)C(=O)N[C@H]1CSSC[C@@H](C(=O)N[C@@H](Cc2c[nH]c3ccccc23)C(=O)N2CCC[C@H]2C(N)=O)NC(=O)[C@H](CC(=O)O)NC(=O)[C@H](Cc2c[nH]cn2)NC(=O)[C@H](Cc2c[nH]c3ccccc23)NC(=O)[C@H](CC(N)=O)NC(=O)[C@H](CC(N)=O)NC1=O)[C@@H](C)O` [compound 14, Ac-M-W-T-(L-Ala)-C(3)-N-N-W-H-D-C(3)-W-P-CONH2] (Ac-MWTACNNWHDCWP-NH2; disulfide 5-11), the Kd (read-out: SPR KD) lay in the range of 10 to 100 nM.

As for `CC(=O)N[C@@H](Cc1c[nH]c2ccccc12)C(=O)N[C@H](C(=O)N[C@@H](CC(C)(C)C)C(=O)N[C@H]1CSCSC[C@@H](C(=O)N[C@@H](Cc2c[nH]c3ccccc23)C(=O)N2CCC[C@H]2C(N)=O)NC(=O)[C@H](CC(=O)O)NC(=O)[C@H](CCCCNC(=O)C[C@H]2CC[C@H](NC(=O)CN3CCN(CC(=O)O)CCN(CC(=O)O)CCN(CC(=O)O)CC3)CC2)NC(=O)[C@H](Cc2ccc3ccccc3c2)NC(=O)[C@H](CC(N)=O)NC(=O)[C@H](CC2CCNCC2)NC1=O)[C@@H](C)O` [compound 434, Ac-W-T-(t-Bu-Ala)-C(3)-[3-(4-piperidinyl)-Ala]-N-(2Nal)-Lys(Chx-DOTA)-D-C(3)-W-P-NH2] (Ac-WT[tBuAla]C[Ala(piperidin-4-yl)]N[2Nal]K(X7)DCWP-NH2; linker 4-10 via CH2), for the setting “read-out: SPR KD”, the Kd is below 1 nM.

Take `CC(=O)N[C@@H](Cc1c[nH]c2ccccc12)C(=O)N[C@H](C(=O)N(C)[C@@H](CC(C)(C)C)C(=O)N[C@H]1CSSC[C@@H](C(=O)N[C@@H](Cc2c[nH]c3ccccc23)C(=O)N2CCC[C@H]2C(N)=O)NC(=O)[C@H](CC(=O)O)NC(=O)[C@H](CCCCNC(=O)CN2CCN(CC(=O)O)CCN(CC(=O)O)CCN(CC(=O)O)CC2)NC(=O)[C@H](Cc2ccc3ccccc3c2)NC(=O)[C@H](CC(N)=O)NC(=O)[C@H](CC2CCNCC2)NC1=O)[C@@H](C)O` [compound 419, Ac-W-T-(NMe-tBuAla)-C(3)-[3-(4piperdinyl)-Ala]-N-(2Nal)-Lys(DOTA)-D-C(3)-W-P-CONH2] (Ac-WT[NMetBuAla]C[Ala(piperidin-4-yl)]N[2Nal]K(DOTA)DCWP-NH2; disulfide 4-10): the Kd (read-out: SPR KD) was below 1 nM.

In the case of `CC[C@H](C)[C@H](NC(=O)[C@@H](NC(=O)[C@H](Cc1c[nH]c2ccccc12)NC(=O)[C@H](CCSC)NC(C)=O)[C@@H](C)O)C(=O)N[C@H]1CSSC[C@@H](C(=O)N[C@@H](Cc2c[nH]c3ccccc23)C(=O)N2CCC[C@H]2C(N)=O)NC(=O)[C@H](CC(=O)O)NC(=O)[C@H](Cc2cnc[nH]2)NC(=O)[C@H](Cc2c[nH]c3ccccc23)NC(=O)[C@H](C)NC(=O)[C@H](CC(N)=O)NC1=O` [compound 38, Ac-M-W-T-I-C(3)-N-(L-Ala)-W-H-D-C(3)-W-P-CONH2] (Ac-MWTICNAWHDCWP-NH2; disulfide 5-11), where the note is “read-out: SPR KD”, the Kd lay within 10 to 100 nM.

For `CC(=O)N[C@H](Cc1c[nH]c2ccccc12)C(=O)N[C@@H](C(=O)N[C@@H](CC(C)(C)C)C(=O)N[C@@H]1CSCSC[C@@H](C(=O)N[C@@H](Cc2c[nH]c3ccccc23)C(=O)N2CCC[C@H]2C(N)=O)NC(=O)[C@H](CC(=O)O)NC(=O)[C@H](CCCCNC(=O)CN2CCN(CC(=O)O)CCN(CC(=O)O)CCN(CC(=O)O)CC2)NC(=O)[C@H](Cc2ccc3ccccc3c2)NC(=O)[C@H](CC(N)=O)NC(=O)[C@H](CC(N)=O)NC1=O)[C@H](C)O` [compound 423, Ac-W-T-(t-Bu-Ala)-[D-Cys(1)]-N-N-(2Nal)-Lys(DOTA)-D-C(1)-W-P-CONH2] (Ac-[dW][dT][tBuAla][dC]NN[2Nal]K(DOTA)DCWP-NH2; linker 4-10 via CH2), the Kd (read-out: SPR KD) was 100 to 300 nM.

Consider `CC(=O)N[C@@H](Cc1c[nH]c2ccccc12)C(=O)N[C@H](C(=O)N[C@H](C(=O)N[C@H]1CSCSC[C@@H](C(=O)N[C@@H](Cc2c[nH]c3ccccc23)C(=O)N2CCC[C@H]2C(N)=O)NC(=O)[C@H](CC(=O)O)NC(=O)[C@H](CCCCNC(=O)CN2CCN(CC(=O)O)CCN(CC(=O)O)CCN(CC(=O)O)CC2)NC(=O)[C@H](Cc2ccc3ccccc3c2)NC(=O)[C@H](CC(N)=O)NC(=O)[C@H](CC2CCNCC2)NC1=O)C1CCCCC1)[C@@H](C)O` [compound 398, Ac-W-T-(Chg)-C(1)-[3-(4-piperidinyl)-Ala]-N-(2Nal)-Lys(DOTA)-D-C(1)-W-P-CONH2] (Ac-WT[Chg]C[Ala(piperidin-4-yl)]N[2Nal]K(DOTA)DCWP-NH2; linker 4-10 via CH2), for which the Kd (read-out: SPR KD) was below 1 nM.

Turning to `CC[C@H](C)[C@H](NC(=O)[C@H](C)NC(=O)[C@H](Cc1c[nH]c2ccccc12)NC(=O)[C@H](CCSC)NC(C)=O)C(=O)N[C@H]1CSSC[C@@H](C(=O)N[C@@H](Cc2c[nH]c3ccccc23)C(=O)N2CCC[C@H]2C(N)=O)NC(=O)[C@H](CC(=O)O)NC(=O)[C@H](Cc2cnc[nH]2)NC(=O)[C@H](Cc2c[nH]c3ccccc23)NC(=O)[C@H](CC(N)=O)NC(=O)[C@H](CC(N)=O)NC1=O` [compound 13, Ac-M-W-(L-Ala)-I-C(3)-N-N-W-H-D-C(3)-W-P-CONH2] (Ac-MWAICNNWHDCWP-NH2; disulfide 5-11), the Kd (read-out: SPR KD) lay in the range of 10 to 100 nM.

Take `CC(=O)N[C@@H](Cc1c[nH]c2ccccc12)C(=O)N[C@H](C(=O)N[C@H](C(=O)N[C@H]1CSSC[C@@H](C(=O)N[C@@H](Cc2c[nH]c3ccccc23)C(=O)N2CCC[C@H]2C(N)=O)NC(=O)[C@H](CC(=O)O)NC(=O)[C@H](CCCCNC(=O)CN2CCN(CC(=O)O)CCN(CC(=O)O)CCN(CC(=O)O)CC2)NC(=O)[C@H](Cc2ccc3ccccc3c2)NC(=O)[C@H](CC(N)=O)NC(=O)[C@H](CN2CCOCC2)NC1=O)C1CCCCC1)[C@@H](C)O` [compound 325, Ac-W-T-(Chg)-C(3)-[3-(1-morpholinyl)-Ala]-N-(2Nal)-Lys(DOTA)-D-C(3)-W-P-CONH2] (Ac-WT[Chg]C[Ala(morpholin-4-yl)]N[2Nal]K(DOTA)DCWP-NH2; disulfide 4-10): where the note is “SPR KD”, the Kd is below 1 nM.

As for `CCCC[C@H](NC(=O)[C@@H](NC(=O)[C@H](Cc1c[nH]c2ccccc12)NC(C)=O)[C@@H](C)O)C(=O)N[C@H]1CSSC[C@@H](C(=O)N[C@@H](Cc2c[nH]c3ccccc23)C(=O)N2CCC[C@H]2C(N)=O)NC(=O)[C@H](CC(=O)O)NC(=O)[C@H](Cc2cnc[nH]2)NC(=O)[C@H](Cc2c[nH]c3ccccc23)NC(=O)[C@H](CC(N)=O)NC(=O)[C@H](CC(N)=O)NC1=O` [compound 339, Ac-W-T-(Nle)-C(3)-N-N-W-H-D-C(3)-W-P-CONH2] (Ac-WT[Nle]CNNWHDCWP-NH2; disulfide 4-10), the Kd (read-out: SPR KD) lay in the range of 1 to 10 nM.

On to `CC[C@H](C)[C@H](NC(=O)[C@@H](NC(=O)[C@H](Cc1c[nH]c2ccccc12)NC(C)=O)[C@@H](C)O)C(=O)N[C@H]1CSSC[C@@H](C(=O)N[C@@H](Cc2c[nH]c3ccccc23)C(=O)N2CCC[C@H]2C(N)=O)NC(=O)[C@H](CC(=O)O)NC(=O)[C@H](Cc2cnc[nH]2)NC(=O)[C@H](Cc2ccc(-c3ccccc3)cc2)NC(=O)[C@H](CC(N)=O)NC(=O)[C@H](CC(N)=O)NC1=O` [compound 53, Ac-W-T-I-C(3)-N-N-(BIP)-H-D-C(3)-W-P-CONH2] (Ac-WTICNN[Bip]HDCWP-NH2; disulfide 4-10), for which, where the note is “read-out: SPR KD”, the Kd fell in the range of 10 to 100 nM.

Turning to `CC[C@H](C)[C@H](NC(=O)[C@@H](NC(=O)[C@H](Cc1c[nH]c2ccccc12)NC(C)=O)[C@@H](C)O)C(=O)N[C@H]1CSSC[C@@H](C(=O)N[C@@H](Cc2c[nH]c3ncccc23)C(=O)N2CCC[C@H]2C(N)=O)NC(=O)[C@H](CC(=O)O)NC(=O)[C@H](Cc2c[nH]cn2)NC(=O)[C@H](Cc2c[nH]c3ccccc23)NC(=O)[C@H](CC(N)=O)NC(=O)[C@H](CC(N)=O)NC1=O` [compound 51, Ac-W-T-I-C(3)-N-N-W-H-D-C(3)-(7Aza-W)-P-CONH2] (Ac-WTICNNWHDC[Trp(7-aza)]P-NH2; disulfide 4-10), the Kd (read-out: SPR KD) lay in the range of 1 to 10 nM.

`CC(=O)N[C@@H](Cc1c[nH]c2ccccc12)C(=O)N[C@H](C(=O)N[C@@H](CC1CCC1)C(=O)N[C@H]1CSSC[C@@H](C(=O)N[C@@H](Cc2c[nH]c3ccccc23)C(=O)N2CCC[C@H]2C(N)=O)NC(=O)[C@H](CC(=O)O)NC(=O)[C@H](Cc2cnc[nH]2)NC(=O)[C@H](Cc2c[nH]c3ccccc23)NC(=O)[C@H](CC(N)=O)NC(=O)[C@H](CC(N)=O)NC1=O)[C@@H](C)O` [compound 341, Ac-W-T-(CBA)-C(3)-N-N-W-H-D-C(3)-W-P-CONH2] (Ac-WT[Cba]CNNWHDCWP-NH2; disulfide 4-10): for the setting “read-out: SPR KD”, the Kd fell in the range of 1 to 10 nM.
